According to US8778884B2, “Glioprotectant peptide for use in the treatment of amyotrophic lateral sclerosis (ALS) and methods related thereto” (Fondazione Salvatore Maugeri Clinica del Lavora e Della …, priority 2011, dated 2014):
“And” between values parts separate entries of the source, which are not always exact repeats. Equal entries are not always repeated. “Also recorded” adds a separate entry of the source.

Columns and labels:
[1] = tested on: hSOD1^G93A-expressing astrocytes; test: single-cell Fluo4 [Ca^2+]i imaging in hSOD1^G93A-expressing astrocytes; type: cell-based, mouse
Protocol: (§1) Astrocytes cultures. Primary astrocyte cultures (>99% GFAP-positive) were prepared from the spinal cord of newborn mice (hSOD1^G93A or wild-type littermates). Once the cultures reached the confluence, they were replated at the optimal density either in 24-well plates or 35-mm Petri dishes containing glass coverslips and maintained in Minimal Essential Medium (MEM, GIBCO) supplemented with 10% foetal bovine serum (FBS, Sigma-Aldrich).
(§2) [Ca^2+]i imaging. ASTROCYTES were plated (2.5×10^4 cells/35 mm Petri dish) on glass coverslips and used 2-3 days later as already shown. Before imaging, cells were loaded with 5 μM Fluo4-AM (Molecular Probes) for 15-20 min. at 37° C. in a HEPES-KRH buffer containing (in mM): NaCl 116, KCl 4, MgCl2 1, CaCl2 1.8, HEPES-acid 10, glucose 25 (pH 7.4) and then allowed to de-esterify for 10 min. After several washes, coverslips were mounted in an open perfusion micro-incubator (PDMI-2, Harvard Apparatus) set at 37° C. on the stage of the optical recording microscope. During experiments, cells were continuously perfused with HEPES-KRH (1 ml/min), and 100 μM DHPG was applied via a software-controlled micro-perfusion fast-step device (100 μl/min, Warner Instrument Corp.) A Zeiss Axiovert 200 inverted fluorescence microscope was modified to allow EPI illumination (Visitron Systems). Fluo4 fluorescence was recorded through a 63× or 40× objectives lens (Zeiss, Neofluar 63×/1.25 Oil, Neofluar 40×/1.3 Oil) and directed through a Zeiss filter set 10 (BP 450-490; BP 515-565) at 200- or 400 ms of intervals by imaging with excitation light at 488 nm generated by a polychromator illumination system (Visichrome, Visitron). Video images, digitized with MetaFluor, were analyzed with MetaMorph software (Universal Imaging). Temporal dynamics of Fluo4 fluorescence have been expressed as background-subtracted ΔF/F0(%), where F0 represents the fluorescence level of the cells before stimulation, and F represents the change in fluorescence occurring during the stimulus.
(§3) [Ca^2+]i imaging. The measurements of [Ca^2+]i were performed as described in Example 2. Briefly, cells were loaded with 5 μM Fluo4-AM and then allowed to de-esterify for 10 min.
(§4) After several washes, coverslips were mounted in an open perfusion micro-incubator set at 37° C. on the stage of the optical recording microscope. During experiments, cells were continuously perfused with HEPES-KRH (1 ml/min), and 0.5 μM TAT-BH4 was applied 30 min. before adding 100 μM DHPG via a software-controlled micro-perfusion fast-step device (100 μl/min, Warner Instrument Corp.).

wild-type astrocytes = test: single-cell Fluo4 [Ca^2+]i imaging in wild-type astrocytes; type: cell-based, mouse
Protocol: as §1, §2, §3, §4

[2] = tested on: hSOD1^G93A-expressing astrocytes; test: astrocyte toxicity assay, DHPG challenge (nuclear condensation, active caspase-3); type: cell-based, mouse
Protocol: (§5) Pharmacological treatments in vitro. To assess the ability of TAT-BH4 to penetrate into cells, astrocytes (8×10^4 cells/well) were plated in 24-well plates containing glass coverslips. Cultures were treated with 10 μg/ml Hoechst 33342 (Sigma) for 15 min., quickly washed and incubated with 0.5 μM TAT-BH4 (TAT^48-57 conjugated to the BH4 domain of Bcl-XL) either unconjugated or conjugated with 5(6)-carboxyfluorescein (FAM, Primm srl) for 30 min. Peptides in excess were subsequently removed, cells were washed and immediately fixed (methanol:acetone 1:1 for 10 min.) or maintained in culture for 24 hrs and then fixed. The presence of the peptides inside the cells was evaluated by a digital camera (DFC 310 FX, Leica Microsystem) mounted on a DM5000 B microscope (Leica Microsystem) and analysed by Leica Application Suite 3.5.0 software. […]
(§6) Astrocyte toxicity assays. The toxic effect of DHPG or staurosporine on cultured astrocytes was determined by double staining with the fluorescent nuclear dye Hoechst 33342 and anti-active caspase-3 immunocytochemistry using a rabbit polyclonal antibody (1:50, Cell Signalling Technology). The number of astrocytes showing condensed nuclei and activated caspase-3 24 hrs after the pharmacological challenge was counted by two independent operators in a blind manner. […]

[3] = tested on: hSOD1^G93A-expressing astrocytes; test: cytochrome c release (co-localization of Cyt c with SOD2); type: cell-based, mouse; conditions: DHPG 100 μM
Protocol: Pharmacological treatments in vitro. To assess the ability of TAT-BH4 to penetrate into cells, astrocytes (8×10^4 cells/well) were plated in 24-well plates containing glass coverslips. Cultures were treated with 10 μg/ml Hoechst 33342 (Sigma) for 15 min., quickly washed and incubated with 0.5 μM TAT-BH4 (TAT^48-57 conjugated to the BH4 domain of Bcl-XL) either unconjugated or conjugated with 5(6)-carboxyfluorescein (FAM, Primm srl) for 30 min. Peptides in excess were subsequently removed, cells were washed and immediately fixed (methanol:acetone 1:1 for 10 min.) or maintained in culture for 24 hrs and then fixed. The presence of the peptides inside the cells was evaluated by a digital camera (DFC 310 FX, Leica Microsystem) mounted on a DM5000 B microscope (Leica Microsystem) and analysed by Leica Application Suite 3.5.0 software. To test the protective efficacy of TAT-BH4, astrocytes in culture were pre-exposed to different concentrations of the peptide (0.1 and/or 0.5 μM, 30 min.), washed and then treated with DHPG (100 μM, 30 min., Tocris Cookson Ltd.) or staurosporine (1 μM, 6 hrs, Sigma-Aldrich). After removal of DHPG, astrocytes were allowed to recover at 37° C. for 24 hrs.
Cytochrome c release. […] Cytochrome c release from mitochondria was determined by its co-localization with the mitochondrial protein SOD2 using JACoP plug-in ImageJ. […]

astrocyte cultures = test: astrocyte toxicity assay, staurosporine challenge (nuclear condensation); type: cell-based, mouse
Protocol: as §5, §6

hSOD1^G93A mice [4] = test: chronic treatment of hSOD1^G93A mice: disease onset, rotarod, survival; type: in vivo, mouse; conditions: 5 mg/kg i.p. daily from age 40 days
Protocol: Transgenic mice. Transgenic mice expressing human SOD1^G93A (B6SJL-TgN(SOD1-G93A)1Gur were purchased from The Jackson Laboratories. The colonies were maintained by breeding hemizygote males to wild-type C57BI6/SJL F1 hybrid females. Offspring were genotyped and used for subsequent studies. Animal procedures were approved by the Italian Ministry of Health.
(§7) Pharmacological treatment in vivo. hSOD1^G93A mice were administrated daily 5 mg/kg TAT-BH4 peptide in PBS containing 10% glycerol or vehicle alone (PBS plus 10% glycerol) intraperitoneally starting at the age of 40 days (n=14 mice for each condition). Mice were thereafter kept under daily observation and weighted twice a week. Age of disease onset was retrospectively determined as the time when mice reached the peak in the body weight. Motor performance was assessed twice a week by rotarod test starting at the age of 50 days. Briefly, animals were place on an accelerating rod (Ugo Basile) and the time each mouse remained on the rod was recorded. The average of three independent trials per session was used for further analysis of the data. End stage was defined as the time in which animals were unable to right themselves within 30 seconds when placed on their side.
Statistics. Data are represented as mean±s.e.m. and statistical significance is verified using GraphPad Prism software. Unpaired or paired 2-tailed t-test was used for comparisons between two groups; one-way or two-way analysis of variance (ANOVA) followed by Bonferroni post-hoc test was used for comparisons of multiple groups; repeated measures two-way ANOVA was used for behavioral test; the Logrank test was used for disease onset and survival analysis.

hSOD1^G93A mice [5] = test: histopathological analysis of spinal cord of treated hSOD1^G93A mice; type: in vivo, mouse; conditions: 5 mg/kg i.p. daily
Excerpt: Tissue preparation and immunohistological analysis. For mouse tissue preparation, the spine was taken and immersed in 4% buffered paraformaldehyde for 24 hrs; spinal cord was extracted, the lumbar tract was removed and either paraffin embedded or cryoprotected in 30% sucrose before freezing. For human tissue preparation, spinal cord was removed and 0.5 cm thick slices were taken from the cervical (C7), thoracic (T4 and T8) and lumbar (L1) levels. Slices were fixed in 10% buffered formalin and embedded in paraffin. Mouse or human spinal cords were sectioned at 5-10 μm and used to perform different immunostainings. On selected sections, the following primary antibodies were used: GFAP (mouse monoclonal antibody, 1:50, Dako), CD11b (rat monoclonal antibody, 1:500, Serotec), mGluR5 (rabbit polyclonal antibody, 1:100, MBL International Corporation); active caspase-3 (rabbit polyclonal antibody, 1:50, Cell Signalling Technology). For active caspase-3 immunostaining, a Tyramide Amplification System kit was used (Perkin Elmer, Inc.). For histopathological analysis, serial sections were either immunostained for GFAP/active caspase-3 or treated with 0.5% cresyl violet (Sigma Aldrich) to detect motor neuron Nissl substance. GFAP/active caspase-3 positive astrocytes and motor neurons were counted for a total of 9 disectors using an unbiased stereologic physical disector technique. Z-axis image stacks (z-step size: 0.5 μm) were collected to generate three-dimensional data sets of spinal cord sections on an MRC 1024 Bio-Rad confocal microscope with a 63× Plan Neofluar NA1,25 oil-immersion objective in condition of optimal iris diameter as defined by LaserSharp 2000 software. Quantitative analysis of punctuate mGluR5, GFAP or CD11 b stainings was performed on confocal acquired images (1024×1024 pixels) of the spinal cord ventral horns from both wild-type and SOD1^G93A animals using ImageJ software (National Institutes of Health). After establishing an intensity threshold, the software calculated the percentage of area occupied by mGluR5, GFAP or CD11b staining by dividing the area of immunopositivity by the total area.
as §7

[6] = TAT-BH4 0.5 μM 30 min before DHPG 100 μM
[7] = TAT-BH4 0.5 μM 30 min before STS 1 μM

Molecule: NC(C(=O)O)c1cc(O)cc(O)c1 (racemic) [DHPG, (RS)-3,5-dihydroxyphenylglycine, reference compound]
- change of initial [Ca^2+]i transient (ΔF/F0) with respect to wild-type cells ([1]; DHPG 100 μM): −63%
- peak amplitude of initial DHPG-evoked [Ca^2+]i transient ([1]; DHPG 100 μM): 0.1±0.08 ΔF/F0
- time to plateau of long-lasting [Ca^2+]i rise ([1]; DHPG 100 μM): about 10 min
- average [Ca^2+]i oscillation frequency (wild-type astrocytes; DHPG 100 μM): 17±2.5 mHz
- peak amplitude of initial DHPG-evoked [Ca^2+]i transient (wild-type astrocytes; DHPG 100 μM): 0.27±0.18 ΔF/F0
- percentage of astrocytes with nuclear condensation and caspase-3 activation, effect of DHPG ([2]; DHPG 100 μM, compared with wild-type cells): induces an increment
- mitochondria and cytochrome c, effect of DHPG [3]: causes mitochondrial disarrangement and release of cytochrome c

Molecule: H2N-GRKKRRQRRRGGSNRELVVDFLSYKLSQKGYS-COOH (H-GRKKRRQRRRGGSNRELVVDFLSYKLSQKGYS-OH) [TAT-BH4, BH4 domain of Bcl-XL fused via GG to the protein transduction domain of the HIV TAT protein]
- average [Ca^2+]i oscillation frequency after DHPG [1, 6]: 14±3.1 mHz
- percentage of cells in which DHPG evokes a single [Ca^2+]i transient followed by sustained [Ca^2+]i oscillations (pattern as in wild-type) [1, 6]: 100% and 99%
- [Ca^2+]i response to local application of the peptide alone ([1]; TAT-BH4 0.5 μM, 30 min): immediate [Ca^2+]i rise followed by sustained [Ca^2+]i oscillations
- change of persistent [Ca^2+]i rise evoked by STS, with respect to STS alone (wild-type astrocytes; [7]): −72%
- effect on [Ca^2+]i oscillations in STS-treated cells (wild-type astrocytes; [7]): restored [Ca^2+]i oscillations; also recorded: re-establishment of [Ca^2+]i oscillations
- [Ca^2+]i response to local application of the peptide alone (wild-type astrocytes; TAT-BH4 0.5 μM, 30 min): immediate [Ca^2+]i rise followed by sustained [Ca^2+]i oscillations
- percentage of astrocytes with nuclear condensation and caspase-3 activation after DHPG, effect of peptide ([2]; TAT-BH4 0.5 μM 30 min pre-treatment, DHPG 100 μM 30 min, 24 hrs recovery): significantly reduced; also recorded: significant reduction
- release of cytochrome c / co-localization of Cyt c and SOD2 after DHPG, effect of peptide ([3]; TAT-BH4 0.5 μM 30 min pre-treatment): restores the complete co-localization of the two proteins; also recorded: significant reduction
- cells with nuclear condensation (apoptotic cells) after STS, effect of peptide (astrocyte cultures; TAT-BH4 0.1 or 0.5 μM 30 min pre-incubation, STS 1 μM 6 h): reduced the number of apoptotic cells in a dose-dependent manner; also recorded: potently inhibited in a dose-dependent fashion
- extension of life span (hSOD1^G93A mice [4]): 15 days
- rotarod motor performance compared to saline-treated animals (hSOD1^G93A mice [4]): significantly improves motor performance; also recorded: performed significantly better
- age at disease onset (peak body weight) (hSOD1^G93A mice [4]; n=14): 107.5 ± 1.8 days
- survival time (hSOD1^G93A mice [4]; n=14): 138 ± 2.1 days
- delay of onset of symptoms compared to controls (hSOD1^G93A mice [4]; onset = peak body weight): 8 days
- CD11b-immunopositive microglial cells (hSOD1^G93A mice [5]; n=18 fields from three mice): 1040.7±20.4 cells/mm^2
- GFAP-positive astrocytes in spinal ventral horns (hSOD1^G93A mice [5]; n=18 fields from three mice): 917.9±33.1 cells/mm^2
- change in number of spheroid astrocytes immunopositive for active caspase-3, with respect to saline-treated mice (hSOD1^G93A mice [5]; 100 day-old mice): −74%
- number of caspase-3-positive cells compared to saline (hSOD1^G93A mice [5]; 100 day-old mice): significantly lower
- number of motor neurons in spinal cord (hSOD1^G93A mice [5]; 100 day-old mice): preservation of a greater number of motor neurons

Molecule: CN[C@@H]1C[C@H]2O[C@@](C)([C@@H]1OC)n1c3ccccc3c3c4c(c5c6ccccc6n2c5c31)C(=O)NC4 [STS, staurosporine, reference compound]
- amplitude of [Ca^2+]i plateau (wild-type astrocytes; STS 1 μM): 3.52±0.22 ΔF/F0
- time to plateau of long-lasting calcium rise (wild-type astrocytes; STS 1 μM): 75 to 80 min
- percentage of cells with nuclear condensation, effect of STS (astrocyte cultures; STS 1 μM, 6 h): caused an increment in the percentage of cells with nuclear condensation
